{
  "source": "patent US11219603B2",
  "about": "“Stable dosage form of etidronate-cytarabine conjugate, and use thereof” (MAXWELL BIOTECH GROUP LTD., priority 2015, dated 2022)",
  "assay": "Effect of MgCl2 on hydrolysis of MBC-11 in solution (formation of Ara-CMP at 25° C.)",
  "assay_type": "physicochemical",
  "conditions": "25° C.",
  "experimental": "Studies were performed, where magnesium chloride was investigated as a stabilizer against hydrolytic decomposition. MgCl2 was added to solutions of MBC-11 conjugate in water, tartrate buffer (50 mmol/L, pH 5) and succinate buffer (50 mmol/L, pH 5). The following molar ratios of MgCl2 to MBC-11 were used: (1:2), (1:1), (2:1) and higher (˜12:1). […]",
  "data": [
    {"compound": "CC(O)(P(=O)(O)O)P(=O)(O)OP(=O)(O)OC[C@H]1O[C@@H](n2ccc(N)nc2=O)[C@@H](O)[C@@H]1O", "note": "(some centres unmarked) [MBC-11]", "values": [
      {"measurement": "Content of Ara-CMP (%)", "setting": "Succinate buffer, MgCl2 0.87 mmol/L, MgCl2:MBC-11 1:2, t = 0 h", "value": 2.6, "unit": "%"},
      {"measurement": "Content of Ara-CMP (%)", "setting": "Succinate buffer, MgCl2 0.87 mmol/L, MgCl2:MBC-11 1:2, t = 4 h", "value": 3.5, "unit": "%"},
      {"measurement": "Content of Ara-CMP (%)", "setting": "Succinate buffer, MgCl2 0.87 mmol/L, MgCl2:MBC-11 1:2, t = 8 h", "value": 4.4, "unit": "%"},
      {"measurement": "Content of Ara-CMP (%)", "setting": "Succinate buffer, MgCl2 0.87 mmol/L, MgCl2:MBC-11 1:2, t = 24 h", "value": 7.9, "unit": "%"},
      {"measurement": "Content of Ara-CMP (%)", "setting": "Succinate buffer, MgCl2 1.73 mmol/L, MgCl2:MBC-11 1:1, t = 0 h", "value": 2.5, "unit": "%"},
      {"measurement": "Content of Ara-CMP (%)", "setting": "Succinate buffer, MgCl2 1.73 mmol/L, MgCl2:MBC-11 1:1, t = 4 h", "value": 3.1, "unit": "%"},
      {"measurement": "Content of Ara-CMP (%)", "setting": "Succinate buffer, MgCl2 1.73 mmol/L, MgCl2:MBC-11 1:1, t = 8 h", "value": 3.7, "unit": "%"},
      {"measurement": "Content of Ara-CMP (%)", "setting": "Succinate buffer, MgCl2 1.73 mmol/L, MgCl2:MBC-11 1:1, t = 24 h", "value": 5.6, "unit": "%"},
      {"measurement": "Content of Ara-CMP (%)", "setting": "Succinate buffer, MgCl2 3.5 mmol/L, MgCl2:MBC-11 2:1, t = 0 h", "value": 2.6, "unit": "%"},
      {"measurement": "Content of Ara-CMP (%)", "setting": "Succinate buffer, MgCl2 3.5 mmol/L, MgCl2:MBC-11 2:1, t = 4 h", "value": 3.1, "unit": "%"},
      {"measurement": "Content of Ara-CMP (%)", "setting": "Succinate buffer, MgCl2 3.5 mmol/L, MgCl2:MBC-11 2:1, t = 8 h", "value": 3.7, "unit": "%"},
      {"measurement": "Content of Ara-CMP (%)", "setting": "Succinate buffer, MgCl2 3.5 mmol/L, MgCl2:MBC-11 2:1, t = 24 h", "value": 5.8, "unit": "%"},
      {"measurement": "Content of Ara-CMP (%)", "setting": "Succinate buffer, MgCl2 20 mmol/L, MgCl2:MBC-11 ~12:1, t = 0 h", "value": 2.5, "unit": "%"},
      {"measurement": "Content of Ara-CMP (%)", "setting": "Succinate buffer, MgCl2 20 mmol/L, MgCl2:MBC-11 ~12:1, t = 4 h", "value": 2.7, "unit": "%"},
      {"measurement": "Content of Ara-CMP (%)", "setting": "Succinate buffer, MgCl2 20 mmol/L, MgCl2:MBC-11 ~12:1, t = 8 h", "value": 2.9, "unit": "%"},
      {"measurement": "Content of Ara-CMP (%)", "setting": "Succinate buffer, MgCl2 20 mmol/L, MgCl2:MBC-11 ~12:1, t = 24 h", "value": 3.6, "unit": "%"},
      {"measurement": "Content of Ara-CMP (%)", "setting": "Succinate buffer, no MgCl2, t = 0 h", "value": 3.5, "unit": "%"},
      {"measurement": "Content of Ara-CMP (%)", "setting": "Succinate buffer, no MgCl2, t = 4 h", "value": 5.0, "unit": "%"},
      {"measurement": "Content of Ara-CMP (%)", "setting": "Succinate buffer, no MgCl2, t = 8 h", "value": 6.4, "unit": "%"},
      {"measurement": "Content of Ara-CMP (%)", "setting": "Succinate buffer, no MgCl2, t = 24 h", "value": 11.5, "unit": "%"},
      {"measurement": "Content of Ara-CMP (%)", "setting": "Tartrate buffer, MgCl2 0.87 mmol/L, MgCl2:MBC-11 1:2, t = 0 h", "value": 2.5, "unit": "%"},
      {"measurement": "Content of Ara-CMP (%)", "setting": "Tartrate buffer, MgCl2 0.87 mmol/L, MgCl2:MBC-11 1:2, t = 4 h", "value": 3.5, "unit": "%"},
      {"measurement": "Content of Ara-CMP (%)", "setting": "Tartrate buffer, MgCl2 0.87 mmol/L, MgCl2:MBC-11 1:2, t = 8 h", "value": 4.5, "unit": "%"},
      {"measurement": "Content of Ara-CMP (%)", "setting": "Tartrate buffer, MgCl2 0.87 mmol/L, MgCl2:MBC-11 1:2, t = 24 h", "value": 8.4, "unit": "%"},
      {"measurement": "Content of Ara-CMP (%)", "setting": "Tartrate buffer, MgCl2 1.73 mmol/L, MgCl2:MBC-11 1:1, t = 0 h", "value": 2.6, "unit": "%"},
      {"measurement": "Content of Ara-CMP (%)", "setting": "Tartrate buffer, MgCl2 1.73 mmol/L, MgCl2:MBC-11 1:1, t = 4 h", "value": 3.3, "unit": "%"},
      {"measurement": "Content of Ara-CMP (%)", "setting": "Tartrate buffer, MgCl2 1.73 mmol/L, MgCl2:MBC-11 1:1, t = 8 h", "value": 4.1, "unit": "%"},
      {"measurement": "Content of Ara-CMP (%)", "setting": "Tartrate buffer, MgCl2 1.73 mmol/L, MgCl2:MBC-11 1:1, t = 24 h", "value": 7.3, "unit": "%"},
      {"measurement": "Content of Ara-CMP (%)", "setting": "Tartrate buffer, MgCl2 3.5 mmol/L, MgCl2:MBC-11 2:1, t = 0 h", "value": 2.5, "unit": "%"},
      {"measurement": "Content of Ara-CMP (%)", "setting": "Tartrate buffer, MgCl2 3.5 mmol/L, MgCl2:MBC-11 2:1, t = 4 h", "value": 3.0, "unit": "%"},
      {"measurement": "Content of Ara-CMP (%)", "setting": "Tartrate buffer, MgCl2 3.5 mmol/L, MgCl2:MBC-11 2:1, t = 8 h", "value": 3.5, "unit": "%"},
      {"measurement": "Content of Ara-CMP (%)", "setting": "Tartrate buffer, MgCl2 3.5 mmol/L, MgCl2:MBC-11 2:1, t = 24 h", "value": 5.5, "unit": "%"},
      {"measurement": "Content of Ara-CMP (%)", "setting": "Tartrate buffer, MgCl2 20 mmol/L, MgCl2:MBC-11 ~12:1, t = 0 h", "value": 2.6, "unit": "%"},
      {"measurement": "Content of Ara-CMP (%)", "setting": "Tartrate buffer, MgCl2 20 mmol/L, MgCl2:MBC-11 ~12:1, t = 4 h", "value": 2.7, "unit": "%"},
      {"measurement": "Content of Ara-CMP (%)", "setting": "Tartrate buffer, MgCl2 20 mmol/L, MgCl2:MBC-11 ~12:1, t = 8 h", "value": 3.0, "unit": "%"},
      {"measurement": "Content of Ara-CMP (%)", "setting": "Tartrate buffer, MgCl2 20 mmol/L, MgCl2:MBC-11 ~12:1, t = 24 h", "value": 3.8, "unit": "%"},
      {"measurement": "Content of Ara-CMP (%)", "setting": "Tartrate buffer, no MgCl2, t = 0 h", "value": 3.8, "unit": "%"},
      {"measurement": "Content of Ara-CMP (%)", "setting": "Tartrate buffer, no MgCl2, t = 4 h", "value": 5.3, "unit": "%"},
      {"measurement": "Content of Ara-CMP (%)", "setting": "Tartrate buffer, no MgCl2, t = 8 h", "value": 6.6, "unit": "%"},
      {"measurement": "Content of Ara-CMP (%)", "setting": "Tartrate buffer, no MgCl2, t = 24 h", "value": 11.7, "unit": "%"},
      {"measurement": "Content of Ara-CMP (%)", "setting": "Water, MgCl2 0.87 mmol/L, MgCl2:MBC-11 1:2, t = 0 h", "value": 2.6, "unit": "%"},
      {"measurement": "Content of Ara-CMP (%)", "setting": "Water, MgCl2 0.87 mmol/L, MgCl2:MBC-11 1:2, t = 4 h", "value": 3.3, "unit": "%"},
      {"measurement": "Content of Ara-CMP (%)", "setting": "Water, MgCl2 0.87 mmol/L, MgCl2:MBC-11 1:2, t = 8 h", "value": 4.0, "unit": "%"},
      {"measurement": "Content of Ara-CMP (%)", "setting": "Water, MgCl2 0.87 mmol/L, MgCl2:MBC-11 1:2, t = 24 h", "value": 6.8, "unit": "%"},
      {"measurement": "Content of Ara-CMP (%)", "setting": "Water, MgCl2 1.73 mmol/L, MgCl2:MBC-11 1:1, t = 0 h", "value": 2.5, "unit": "%"},
      {"measurement": "Content of Ara-CMP (%)", "setting": "Water, MgCl2 1.73 mmol/L, MgCl2:MBC-11 1:1, t = 4 h", "value": 2.8, "unit": "%"},
      {"measurement": "Content of Ara-CMP (%)", "setting": "Water, MgCl2 1.73 mmol/L, MgCl2:MBC-11 1:1, t = 8 h", "value": 3.2, "unit": "%"}
    ]}
  ]
}
